The subject of one assay is HCC-15. Kind of assay: relative viability (nuclei count vs DMSO), 5 days (fraction); higher = more cells survive. The note with it: first compound 0.8 µM. A digest of the protocol:
(§1)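 Relative viability is defined as nuclei in treated wells over nuclei in vehicle wells. Duplicate plates were run and medians reported. Lung cancer cell lines in 1536-well plates were dosed by pin tool one day after seeding, with one drug or with a fixed anchor-drug dose plus five library-drug doses (not always all listed) in √10 steps, and nuclei were counted after 5 days.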
The compound `CCCCCCCCCCCC1=C(O)C(=O)C=C(O)C1=O` [Embelin] + O=C(c1cc(Cc2n[nH]c(=O)c3ccccc23)ccc1F)N1CCN(C(=O)C2CC2)CC1 [Olaparib] (partner 8 µM) came in with a relative viability of 0.727.
Turning to `CCCCCCCCCCCC1=C(O)C(=O)C=C(O)C1=O` [Embelin] + CC(=O)Nc1cccc(-n2c(=O)n(C3CC3)c(=O)c3c(Nc4ccc(I)cc4F)n(C)c(=O)c(C)c32)c1 [Trametinib] (partner 0.02 µM), the relative viability was 0.435.
Still for that read-out and setting: the result for `CCCCCCCCCCCC1=C(O)C(=O)C=C(O)C1=O` [Embelin] + Nc1ncn([C@H]2C[C@H](O)[C@@H](CO)O2)c(=O)n1 [Decitabine] (partner 2 µM) reads 0.694; that for `CCCCCCCCCCCC1=C(O)C(=O)C=C(O)C1=O` [Embelin] + NC(=O)Nc1cc(-c2cccc(F)c2)sc1C(=O)N[C@H]1CCCNC1 [AZD7762] (partner 0.2 µM), 1.15.

Staying with this assay, now noted: first compound 2.53 µM.
In turn, `CCCCCCCCCCCC1=C(O)C(=O)C=C(O)C1=O` [Embelin] + N=C(N)NC(=N)NCCc1ccccc1 [Phenformin] (partner 250 µM) showed a relative viability of 0.461.
As to `CCCCCCCCCCCC1=C(O)C(=O)C=C(O)C1=O` [Embelin] + O=C(c1cc(Cc2n[nH]c(=O)c3ccccc23)ccc1F)N1CCN(C(=O)C2CC2)CC1 [Olaparib] (partner 8 µM), the relative viability worked out at 0.823.
Still for that read-out and setting: the same measure for `CCCCCCCCCCCC1=C(O)C(=O)C=C(O)C1=O` [Embelin] + CC(=O)Nc1cccc(-n2c(=O)n(C3CC3)c(=O)c3c(Nc4ccc(I)cc4F)n(C)c(=O)c(C)c32)c1 [Trametinib] (partner 0.02 µM): 0.345.
Still for that read-out and setting: the same measure for `CCCCCCCCCCCC1=C(O)C(=O)C=C(O)C1=O` [Embelin] + Nc1ncn([C@H]2C[C@H](O)[C@@H](CO)O2)c(=O)n1 [Decitabine] (partner 2 µM): 0.697.
On the same count and under the same terms, the same measure for `CCCCCCCCCCCC1=C(O)C(=O)C=C(O)C1=O` [Embelin] + NC(=O)Nc1cc(-c2cccc(F)c2)sc1C(=O)N[C@H]1CCCNC1 [AZD7762] (partner 0.2 µM): 1.46.

The assay is the same for the next values; noted with them: first compound 8 µM.
Consider `CCCCCCCCCCCC1=C(O)C(=O)C=C(O)C1=O` [Embelin] + N=C(N)NC(=N)NCCc1ccccc1 [Phenformin] (partner 250 µM), for which the relative viability stood at 0.438.
In the case of `CCCCCCCCCCCC1=C(O)C(=O)C=C(O)C1=O` [Embelin] + O=C(c1cc(Cc2n[nH]c(=O)c3ccccc23)ccc1F)N1CCN(C(=O)C2CC2)CC1 [Olaparib] (partner 8 µM), the relative viability amounted to 0.73.
Same read-out and setting: the same measure for `CCCCCCCCCCCC1=C(O)C(=O)C=C(O)C1=O` [Embelin] + CC(=O)Nc1cccc(-n2c(=O)n(C3CC3)c(=O)c3c(Nc4ccc(I)cc4F)n(C)c(=O)c(C)c32)c1 [Trametinib] (partner 0.02 µM): 0.383; for `CCCCCCCCCCCC1=C(O)C(=O)C=C(O)C1=O` [Embelin] + Nc1ncn([C@H]2C[C@H](O)[C@@H](CO)O2)c(=O)n1 [Decitabine] (partner 2 µM): 0.617.
In turn, `CCCCCCCCCCCC1=C(O)C(=O)C=C(O)C1=O` [Embelin] + NC(=O)Nc1cc(-c2cccc(F)c2)sc1C(=O)N[C@H]1CCCNC1 [AZD7762] (partner 0.2 µM) registered a relative viability of 1.41.

For a further assay, the system named is HCC-827. The description is as above. The note with it: first compound 0.08 µM. A digest of the protocol:
as §1
Turning to `CCCCCCCCCCCC1=C(O)C(=O)C=C(O)C1=O` [Embelin] + N=C(N)NC(=N)NCCc1ccccc1 [Phenformin] (partner 250 µM), the relative viability is 0.426.
The same measure, in the same setting: the result for `CCCCCCCCCCCC1=C(O)C(=O)C=C(O)C1=O` [Embelin] + O=C(c1cc(Cc2n[nH]c(=O)c3ccccc23)ccc1F)N1CCN(C(=O)C2CC2)CC1 [Olaparib] (partner 8 µM) reads 0.634; that for `CCCCCCCCCCCC1=C(O)C(=O)C=C(O)C1=O` [Embelin] + CC(=O)Nc1cccc(-n2c(=O)n(C3CC3)c(=O)c3c(Nc4ccc(I)cc4F)n(C)c(=O)c(C)c32)c1 [Trametinib] (partner 0.02 µM), 0.535; that for `CCCCCCCCCCCC1=C(O)C(=O)C=C(O)C1=O` [Embelin] + Nc1ncn([C@H]2C[C@H](O)[C@@H](CO)O2)c(=O)n1 [Decitabine] (partner 2 µM), 0.336.
Same read-out and setting: the same measure for `CCCCCCCCCCCC1=C(O)C(=O)C=C(O)C1=O` [Embelin] + NC(=O)Nc1cc(-c2cccc(F)c2)sc1C(=O)N[C@H]1CCCNC1 [AZD7762] (partner 0.2 µM): 0.191.

Still in this assay, the particulars now being: first compound 0.8 µM.
`CCCCCCCCCCCC1=C(O)C(=O)C=C(O)C1=O` [Embelin] + N=C(N)NC(=N)NCCc1ccccc1 [Phenformin] (partner 250 µM) had a relative viability of 0.451.
Still for that read-out and setting: the result for `CCCCCCCCCCCC1=C(O)C(=O)C=C(O)C1=O` [Embelin] + O=C(c1cc(Cc2n[nH]c(=O)c3ccccc23)ccc1F)N1CCN(C(=O)C2CC2)CC1 [Olaparib] (partner 8 µM) reads 0.648.
`CCCCCCCCCCCC1=C(O)C(=O)C=C(O)C1=O` [Embelin] + CC(=O)Nc1cccc(-n2c(=O)n(C3CC3)c(=O)c3c(Nc4ccc(I)cc4F)n(C)c(=O)c(C)c32)c1 [Trametinib] (partner 0.02 µM) showed a relative viability of 0.588.
Same read-out and setting: the result for `CCCCCCCCCCCC1=C(O)C(=O)C=C(O)C1=O` [Embelin] + Nc1ncn([C@H]2C[C@H](O)[C@@H](CO)O2)c(=O)n1 [Decitabine] (partner 2 µM) reads 0.333; that for `CCCCCCCCCCCC1=C(O)C(=O)C=C(O)C1=O` [Embelin] + NC(=O)Nc1cc(-c2cccc(F)c2)sc1C(=O)N[C@H]1CCCNC1 [AZD7762] (partner 0.2 µM), 0.21.

The same assay, now with this note: first compound 2.53 µM.
As to `CCCCCCCCCCCC1=C(O)C(=O)C=C(O)C1=O` [Embelin] + N=C(N)NC(=N)NCCc1ccccc1 [Phenformin] (partner 250 µM), the relative viability was found to be 0.477.
Same read-out and setting: the same measure for `CCCCCCCCCCCC1=C(O)C(=O)C=C(O)C1=O` [Embelin] + O=C(c1cc(Cc2n[nH]c(=O)c3ccccc23)ccc1F)N1CCN(C(=O)C2CC2)CC1 [Olaparib] (partner 8 µM): 0.701; for `CCCCCCCCCCCC1=C(O)C(=O)C=C(O)C1=O` [Embelin] + CC(=O)Nc1cccc(-n2c(=O)n(C3CC3)c(=O)c3c(Nc4ccc(I)cc4F)n(C)c(=O)c(C)c32)c1 [Trametinib] (partner 0.02 µM): 0.506.
Same read-out and setting: the result for `CCCCCCCCCCCC1=C(O)C(=O)C=C(O)C1=O` [Embelin] + Nc1ncn([C@H]2C[C@H](O)[C@@H](CO)O2)c(=O)n1 [Decitabine] (partner 2 µM) reads 0.38; that for `CCCCCCCCCCCC1=C(O)C(=O)C=C(O)C1=O` [Embelin] + NC(=O)Nc1cc(-c2cccc(F)c2)sc1C(=O)N[C@H]1CCCNC1 [AZD7762] (partner 0.2 µM), 0.193.

Source of the values: the supplement of paper PMC10307832.
